Laboratory results as given in PubChem BioAssay AID248 (DTP/NCI, 2004).
Toxic doses and inconclusive results are not listed. No stated cut-off is given here; in the data, active means T/C of 150% or more; inactive means T/C below 125%.

Tested on: L1210 leukemia ip in BDF1 mice, survival T/C
Assay: NCI In Vivo Anticancer Drug Screen. Data for tumor model L1210 Leukemia (intraperitoneal) in B6D2F1 (BDF1) mice
Conditions: endpoint: mean survival time, higher = longer survival
Procedure, shortened: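 Value reflects the ratio of survival in compound-treated mice to survival in vehicle-treated controls, with both groups carrying the same transplanted tumor.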

[1] = dose: 100.0 mg/kg/injection, schedule: Q01DX001 (ip), vehicle: carboxymethylcellulose (CMC)
[2] = dose: 200.0 mg/kg/injection, schedule: Q01DX001 (ip), vehicle: carboxymethylcellulose (CMC)
[3] = dose: 400.0 mg/kg/injection, schedule: Q01DX001 (ip), vehicle: carboxymethylcellulose (CMC)
[4] = dose: 50.0 mg/kg/injection, schedule: Q01DX009 (ip), vehicle: Klucel (hydroxypropylcellulose) (HPC)

Measured: T/C

CN(C=O)c1ccccc1C(=O)O
inactive: dose: 100.0 mg/kg/injection, schedule: Q04DX003 (ip), vehicle: saline with Tween-80 97 % of control | dose: 200.0 mg/kg/injection, schedule: Q04DX003 (ip), vehicle: saline with Tween-80 97 % of control | dose: 400.0 mg/kg/injection, schedule: Q04DX003 (ip), vehicle: saline with Tween-80 100 % of control

C[n+]1ccsn1
inactive: [1] 95 % of control | [2] 93 % of control | [3] 95 % of control

CN(N)C(=O)Nc1ccccc1
inactive: dose: 75.0 mg/kg/injection, schedule: Q01DX001 (ip), vehicle: carboxymethylcellulose (CMC) 100 % of control | dose: 150.0 mg/kg/injection, schedule: Q01DX001 (ip), vehicle: carboxymethylcellulose (CMC) 100 % of control

Cc1ccccc1C(O)c1ccccc1Cl (stereo not given)
inactive: dose: 100.0 mg/kg/injection, schedule: Q01DX001 (ip), vehicle: saline with Tween-80 109 % of control | dose: 200.0 mg/kg/injection, schedule: Q01DX001 (ip), vehicle: saline with Tween-80 102 % of control | dose: 400.0 mg/kg/injection, schedule: Q01DX001 (ip), vehicle: saline with Tween-80 94 % of control

CC(=O)CC(=O)N(c1ccccn1)c1ccccn1
inactive: [1] 104 % of control | [2] 98 % of control | [3] 98 % of control

CCCCC(=O)N/N=C/c1ccccc1OC
inactive: dose: 100.0 mg/kg/injection, schedule: Q01DX001 (ip), vehicle: saline 102 % of control | dose: 200.0 mg/kg/injection, schedule: Q01DX001 (ip), vehicle: saline 104 % of control

C=CCc1ccc(OCCOCCN(CC=C(C)C)CC=C(C)C)c(OC)c1
inactive: dose: 12.5 mg/kg/injection, schedule: Q01DX009 (ip), vehicle: Klucel (hydroxypropylcellulose) (HPC) 100 % of control | dose: 12.5 mg/kg/injection, schedule: Q04DX003 (ip), vehicle: Klucel (hydroxypropylcellulose) (HPC) 96 % of control | dose: 25.0 mg/kg/injection, schedule: Q01DX009 (ip), vehicle: Klucel (hydroxypropylcellulose) (HPC) 97 % of control | dose: 25.0 mg/kg/injection, schedule: Q04DX003 (ip), vehicle: Klucel (hydroxypropylcellulose) (HPC) 98 % of control | [4] 95 % of control | dose: 50.0 mg/kg/injection, schedule: Q04DX003 (ip), vehicle: Klucel (hydroxypropylcellulose) (HPC) 88 % of control

Cc1cccc(C)c1N1C(=O)CCC1=O
inactive: [4] 98 % of control | dose: 100.0 mg/kg/injection, schedule: Q01DX009 (ip), vehicle: Klucel (hydroxypropylcellulose) (HPC) 96 % of control | dose: 100.0 mg/kg/injection, schedule: Q04DX003 (ip), vehicle: Klucel (hydroxypropylcellulose) (HPC) 94 % of control | dose: 200.0 mg/kg/injection, schedule: Q01DX009 (ip), vehicle: Klucel (hydroxypropylcellulose) (HPC) 100 % of control | dose: 200.0 mg/kg/injection, schedule: Q04DX003 (ip), vehicle: Klucel (hydroxypropylcellulose) (HPC) 97 % of control | dose: 400.0 mg/kg/injection, schedule: Q01DX009 (ip), vehicle: Klucel (hydroxypropylcellulose) (HPC) 100 % of control | dose: 400.0 mg/kg/injection, schedule: Q04DX003 (ip), vehicle: Klucel (hydroxypropylcellulose) (HPC) 100 % of control

C[n+]1c(/C=C\C=C\N2CCCCC2)sc2ccccc21
inactive: dose: 1.25 mg/kg/injection, schedule: Q04DX002 (ip), vehicle: saline with Tween-80 97 % of control | dose: 2.5 mg/kg/injection, schedule: Q04DX002 (ip), vehicle: saline with Tween-80 108 % of control

NC(=NCc1ccccc1)c1ncn(C2CCCC2)c1N
inactive: dose: 12.5 mg/kg/injection, schedule: Q01DX001 (ip), vehicle: Klucel (hydroxypropylcellulose) (HPC) 103 % of control | dose: 25.0 mg/kg/injection, schedule: Q01DX001 (ip), vehicle: Klucel (hydroxypropylcellulose) (HPC) 102 % of control | dose: 50.0 mg/kg/injection, schedule: Q01DX001 (ip), vehicle: Klucel (hydroxypropylcellulose) (HPC) 96 % of control

Cc1ccc(C)c(NC(=O)Nc2ccccc2Cl)c1
inactive: dose: 100.0 mg/kg/injection, schedule: Q01DX009 (ip), vehicle: gum acacia 90 % of control | dose: 100.0 mg/kg/injection, schedule: Q04DX003 (ip), vehicle: gum acacia 93 % of control | dose: 200.0 mg/kg/injection, schedule: Q01DX009 (ip), vehicle: gum acacia 90 % of control | dose: 200.0 mg/kg/injection, schedule: Q04DX003 (ip), vehicle: gum acacia 91 % of control | dose: 400.0 mg/kg/injection, schedule: Q01DX009 (ip), vehicle: gum acacia 90 % of control | dose: 400.0 mg/kg/injection, schedule: Q04DX003 (ip), vehicle: gum acacia 94 % of control
